Reference: patent US3932382A, “Dideoxybutirosin derivative” (Sankyo Company Limited, priority 1973, dated 1976)
Values after ≈ are worked out from the molar mass of the structure shown. Where two headings read alike, the source gives them in different places.

Key:
[1] = system: E. coli 704-1; test: Protecting Effects in Mice (Table II); format: in vivo; settings: 2 doses subcutaneously at 0 and 4 hours post-infection
Description: (§1) Protecting Effects of 3',4'-Dideoxybutirosin A in Mice
ED50 : mg./kg./dose (2 doses subcutaneously at 0 and […]

[2] = system: E. coli 665; test: Protecting Effects in Mice (Table II); format: in vivo; settings: 2 doses subcutaneously at 0 and 4 hours post-infection, butirosin-resistant strain
Description: as §1
ED50 : mg./kg./dose (2 doses subcutaneously at 0 and
*Butirosin-resistant strain

[3] = for Death incidence: mouse, in vivo
Description: Acute Toxicities of 3',4'-Dideoxybutirosin A
Mice : ddY strain, male, 20 ± 0.2 g.

[4] = system: E. coli 620; test: Minimum Inhibitory Concentration (Table I); format: cell-based; settings: Escherichia coli, Heart-Infusion Agar, butirosin-resistant bacteria
Description: (§2) Minimum Inhibitory Concentration of 3',4'-
(§3) Mark *means butirosin-resistant bacteria
(§4) Medium : Heart-Infusion Agar

[5] = system: E. coli 665; test: Minimum Inhibitory Concentration (Table I); format: cell-based; settings: Escherichia coli, Heart-Infusion Agar, butirosin-resistant bacteria
Description: as §2, §3, §4

[6] = system: Pseudomonas aeruginosa 1055; test: Minimum Inhibitory Concentration (Table I); format: cell-based; settings: Heart-Infusion Agar, butirosin-resistant bacteria
Description: as §2, §3, §4

[7] = system: gram-positive and -negative bacteria; test: Antibacterial activity, general statement; format: cell-based
[8] = system: E. coli clinical isolates (125 strains); test: Susceptibility of Clinical Isolates (Table III); format: cell-based; settings: of 125 strains
Description: (§5) Susceptibility of Clinical Isolates to 3',4'-

[9] = system: P. aeruginosa clinical isolates (102 strains); test: Susceptibility of Clinical Isolates (Table III); format: cell-based; settings: of 102 strains
Description: as §5

[10] = system: butirosin sensitive strains; test: Antibacterial activity against butirosin sensitive strains, statement; format: cell-based
Description: as §2, §4

[11] = system: butirosin-resistant bacteria; test: Antibacterial activity against butirosin-resistant bacteria, statement; format: cell-based
Description: as §2, §3, §4

[12] = system: Staph. aureus 56; test: Minimum Inhibitory Concentration (Table I); format: cell-based; settings: Staphylococcus aureus, Heart-Infusion Agar
Description: as §2, §4

[13] = system: Shigella flexneri 2a; test: Minimum Inhibitory Concentration (Table I); format: cell-based; settings: Heart-Infusion Agar
Description: as §2, §4

[14] = system: Staphylococcus aureus 209P; test: Minimum Inhibitory Concentration (Table I); format: cell-based; settings: Heart-Infusion Agar
Description: as §2, §4

[15] = system: Klebsiella 806; test: Minimum Inhibitory Concentration (Table I); format: cell-based; settings: Heart-Infusion Agar
Description: as §2, §4

[16] = system: Escherichia coli N I H J; test: Minimum Inhibitory Concentration (Table I); format: cell-based; settings: Heart-Infusion Agar
Description: as §2, §4

[17] = system: Bacillus subtilis P C I-219; test: Minimum Inhibitory Concentration (Table I); format: cell-based; settings: PCI219, Heart-Infusion Agar
Description: as §2, §4

[18] = system: Pseudomonas aeruginosa Scr.; test: Minimum Inhibitory Concentration (Table I); format: cell-based; settings: Heart-Infusion Agar
Description: as §2, §4

[19] = system: Salmonela enteritidis; test: Minimum Inhibitory Concentration (Table I); format: cell-based; settings: Heart-Infusion Agar
Description: as §2, §4

[20] = system: Proteus vulgaris 025; test: Minimum Inhibitory Concentration (Table I); format: cell-based; settings: Heart-Infusion Agar
Description: as §2, §4

Molecule: Butirosin [reference compound]
- ED50 [1]: 2.47 mg./kg./dose
- ED50 [2]: 146.3 mg./kg./dose

Molecule: NCC[C@H](O)C(=O)N[C@@H]1C[C@H](N)[C@@H](O[C@H]2O[C@H](CN)CC[C@H]2N)[C@H](O[C@@H]2O[C@H](CO)[C@H](O)[C@H]2O)[C@H]1O [3',4'-Dideoxybutirosin A]
- toxicity ([3]; as compared with the prior similar aminoglycoside antibiotics): considerably low toxicity
- Death incidence ([3]; iv, 250 mg/kg): 0/3
- Death incidence ([3]; iv, 500 mg/kg): 1/2
- Death incidence ([3]; sc, 2000 mg/kg): 0/3
- MIC [4]: 3.1 µg/mL (≈ 5.92 µM)
- MIC [5]: 3.1 µg/mL (≈ 5.92 µM)
- MIC [6]: 6.2 µg/mL (≈ 11.8 µM)
- antibacterial activities [7]: broad antibacterial activities
- number of strains with MIC 0.8 mcg./ml. ([8]; MIC 0.8 mcg./ml.): 0 strains
- number of strains with MIC 1.5 mcg./ml. ([8]; MIC 1.5 mcg./ml.): 0 strains
- number of strains with MIC 3.1 mcg./ml. ([8]; MIC 3.1 mcg./ml.): 0 strains
- number of strains with MIC 6.2 mcg./ml. ([8]; MIC 6.2 mcg./ml.): 6 strains
- number of strains with MIC 12.5 mcg./ml. ([8]; MIC 12.5 mcg./ml.): 100 strains
- number of strains with MIC 25 mcg./ml. ([8]; MIC 25 mcg./ml.): 15 strains
- number of strains with MIC 50 mcg./ml. ([8]; MIC 50 mcg./ml.): 2 strains
- number of strains with MIC 100 mcg./ml. ([8]; MIC 100 mcg./ml.): 2 strains
- number of strains with MIC 200 mcg./ml. ([8]; MIC 200 mcg./ml.): 0 strains
- number of strains with MIC >200 mcg./ml. ([8]; MIC >200 mcg./ml.): 0 strains
- number of strains with MIC 0.8 mcg./ml. ([9]; MIC 0.8 mcg./ml.): 1 strains
- number of strains with MIC 1.5 mcg./ml. ([9]; MIC 1.5 mcg./ml.): 3 strains
- number of strains with MIC 3.1 mcg./ml. ([9]; MIC 3.1 mcg./ml.): 5 strains
- number of strains with MIC 6.2 mcg./ml. ([9]; MIC 6.2 mcg./ml.): 20 strains
- number of strains with MIC 12.5 mcg./ml. ([9]; MIC 12.5 mcg./ml.): 41 strains
- number of strains with MIC 25 mcg./ml. ([9]; MIC 25 mcg./ml.): 21 strains
- number of strains with MIC 50 mcg./ml. ([9]; MIC 50 mcg./ml.): 3 strains
- number of strains with MIC 100 mcg./ml. ([9]; MIC 100 mcg./ml.): 5 strains
- number of strains with MIC 200 mcg./ml. ([9]; MIC 200 mcg./ml.): 2 strains
- number of strains with MIC >200 mcg./ml. ([9]; MIC >200 mcg./ml.): 1 strains
- activities against butirosin sensitive strains [10]: outstanding activities
- activity against butirosin-resistant bacteria [11]: an activity against butirosin -resistant bacteria
- activity against butirosin-resistant bacteria ([11]; listed as 3', 4'-dideoxybutirosin A (I)): outstanding activities
- ED50 ([1]; Escherichia coli, 7041, sc, read-out: ED50): 2.3 mg/kg
- ED50 ([2]; Escherichia coli, 665, sc, read-out: ED50): 2.43 mg/kg
- MIC [12]: 0.4 µg/mL (≈ 0.764 µM)
- MIC [13]: 3.1 µg/mL (≈ 5.92 µM)
- MIC [14]: 0.1 µg/mL (≈ 0.191 µM)
- MIC [15]: 0.8 µg/mL (≈ 1.53 µM)
- MIC [16]: 0.4 µg/mL (≈ 0.764 µM)
- MIC [17]: 0.1 µg/mL (≈ 0.191 µM)
- MIC [18]: 3.1 µg/mL (≈ 5.92 µM)
- MIC [19]: 1.5 µg/mL (≈ 2.86 µM)
- MIC [20]: 0.8 µg/mL (≈ 1.53 µM)
